Laboratory results from patent publication US12378201B2, “Histone demethylase inhibitors for treating cancers” (The Board of Regents of the University of Texas System, priority 2019, dated 2025).

Tests used:
[1] = system: LNCaP and 22rv1 cell lines; test: SAR statements on LNCaP and 22rv1 cell lines; type: cell-based; conditions: LNCaP 1 μM, 22rv1 0.5 μM
Description: All compounds were evaluated for their effects on LNCaP and 22rv1 cell lines at 1 and 0.5 μM concentrations, respectively. […] For this purpose different analogues of B-3 with chain length varying from 0 to 4 carbon were synthesized (Table 1). […] In view of the availability of a variety of commercially available benzyl amines over phenyl propyl amines and method to functionalize analogues with 1C chain compound 14c was selected for further modification.

22rv1 = test: Effect on 22rv1 cell viability
Description: (§1) The initial interest was to see the importance of length of side chain on B-3. […] Relative cell growth can be assessed using the MTT (3-(4,5-dimethylthiazol-2-yl)-2,5-diphenyltetrazolium bromide) assay, a colorimetric assay for assessing cell metabolic activity. Cells (1000 to 2000 cells/well) in 150 μL culture medium were seeded in wells of a 96-well plate one day before various concentrations of drugs were added. After continuing culture in the presence of the drugs for the indicated time (3-4 days), 20 μL of 5 mg/mL MTT solution (Sigma-Aldrich) was added into each well. After incubation at 37° C. for 30 min, the culture medium was removed and 100 μL of DMSO was added to dissolve MTT crystals. Plates were shaken for 15 min at room temperature and absorbance at OD590 was read by plate reader.

[2] = system: prostate and kidney cancer cells; test: Cell growth inhibition / anti-proliferation (MTT); type: cell-based, human
Source text: Results of MTT assays for compounds disclosed herein can be found in FIGS. 1, 2A-2C, 3, 4, 5, 6, 7, 8, 9, 10A-10C, and 11A-11C.

LnCap cells = test: Effect on LnCap cell viability; conditions: 1 μM
Description: as §1

[3] = system: castration resistant prostate cancer cell line 22RV1; test: 22RV1 xenograft tumor growth in NOD/SCID mice; type: in vivo; conditions: in words
Description: All animal work was approved by the Institutional Animal Care and Use Committee. NOD/SCID mice (6-8 weeks old) were subcutaneously injected in the flank region with castration resistant prostate cancer cell line 22RV1 (1×10^6 cells/site) mixed with 50% Matrigel (BD Biosciences). When tumor volumes reached 50-100 mm^3 in size, animals were randomly divided into 5 groups: control (DMSO); B3 (50 or 10 mg/kg in DMSO); SS-79N (20 or 10 mg/kg in DMSO). Each group included six mice. Tumor volume (cubic millimeters) was measured by caliper twice a week and calculated by using the ellipsoid formula (π/6×length×width×depth, see FIGS. 12A-12B).

[4] = system: cancer cell lines including PC3; conditions: previous report; includes PC3 cells lacking AR; cited from earlier work
[5] = system: KDM4B-regulated AR-V7 expression; conditions: previous report; cited from earlier work
KDM4 = conditions: previous report; cited from earlier work

With `O=C(NCc1ccc(C(=O)NC2CCCCC2)cc1)c1cccc(-c2cc(O)c3ncccc3c2)c1` [Compound 17j] the “activity on cell lines, in words (SAR)” value [1] was “significant jump in activity compared to B-3” and the “% Cell Viability of 22rv1 at 0.5 μM” value (22rv1) was 5.0%.
For `O=C(NCc1ccc(C(=O)NC2CCCCCC2)cc1)c1cccc(-c2cc(O)c3ncccc3c2)c1` [Compound 17k], the “activity on cell lines, in words (SAR)” value [1] was “loss of activity” and the “% Cell Viability of 22rv1 at 0.5 μM” value (22rv1) was 10.8%.
With `O=C(NCc1ccc(C(=O)NC2CCC(C(F)(F)F)CC2)cc1)c1cccc(-c2cc(O)c3ncccc3c2)c1` (stereo not drawn) [Compound 17l] the “activity on cell lines, in words (SAR)” value [1] was “improved further”, the “increase in potency compared to other 8-hydroxyquinoline-containing compounds, such as B3” value ([2]; IC50 versus B3) was “more than 20 fold” and the “efficacy compared with the known GSK KDM6B inhibitor” value ([2]; in words) was “much better efficacy than the known GlaxoSmithKline (GSK) KDM6B inhibitor”. The IC50 ([2]; prostate and kidney cancer cells) was < 200 nM, the “% Cell Viability of LnCap cells at 1 μM” value (LnCap cells) was 24.2% and the in vivo efficacy [3] was “favorable in vivo efficacy”.
In the case of `O=C(NCCCc1ccccc1)c1cccc(-c2cc(O)c3ncccc3c2)c1` [Compound B-3, reference compound], the “effectiveness against cancer cell lines, in words” value [4] is listed as “highly effective against a variety of cancer cell lines including PC3”, the “inhibition of KDM4B-regulated AR-V7 expression, in words” value [5] is listed as “able to inhibit KDM4B-regulated AR-V7 expression” and the viability at 0.5 µM (22rv1; Homo sapiens, 22Rv1, read-out: % Cell Viability of 22rv1 at 0.5 μM) is listed as 63.6%. The viability at 1 µM (22rv1; Homo sapiens, 22Rv1, read-out: % Cell Viability of 22rv1 at 1 μM) was 42.5% and the “KDM4 inhibition, in words” value (KDM4) was “highly selective and potent KDM4 inhibitor”.
